Reference: patent US10961215B2, “N-aryl and N-heteroaryl piperidine derivatives as liver X receptor beta agonists, compositions, and their use” (Merck Sharp & Dohme Corp., priority 2016, dated 2021)

Key:
[1] = molecular target: T1, GST tagged LXRbeta LBD (ligand binding domain) (Homo sapiens, UniProt P55055); assay: LanthaScreen TR-FRET Liver X Receptor Coactivator Assay, LXR beta-LBD (co-activator recruitment; IP and % Emax relative to T0901317); type: biochemical; conditions: for EC50: Inflection Point of co-activator recruitment, LXR beta-LBD, TR-FRET; for Emax: efficacy at max dose in relation to reference T0901317, LXR beta-LBD, read-out: LXR beta actiivty at max dose (%)
T1 construct: purchased Invitrogen pv4658.pps
T1 sequence (P55055 222-460 limits assumed): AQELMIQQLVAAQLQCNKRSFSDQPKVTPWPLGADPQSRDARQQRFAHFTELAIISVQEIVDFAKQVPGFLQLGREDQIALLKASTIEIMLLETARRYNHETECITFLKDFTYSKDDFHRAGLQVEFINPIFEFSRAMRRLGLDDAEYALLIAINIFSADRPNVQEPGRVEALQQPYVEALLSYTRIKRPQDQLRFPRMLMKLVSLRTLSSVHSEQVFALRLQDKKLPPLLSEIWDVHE
Procedure, shortened: (§1)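 Coactivator recruitment is scored against T0901317 as reference dual agonist, giving inflection-point potency and Emax. Compounds met the GST-LBD protein first, then a mix of terbium anti-GST antibody and fluorescein coactivator peptide. TR-FRET was measured after incubation at room temperature.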

[2] = molecular target: T2, GST tagged LXRalpha LBD (ligand binding domain) (Homo sapiens, UniProt Q13133); assay: LanthaScreen TR-FRET Liver X Receptor Coactivator Assay, LXR alpha-LBD (co-activator recruitment; IP and % Emax relative to T0901317); type: biochemical; conditions: for LXR alpha IP (nM) / EC50: Inflection Point of co-activator recruitment, LXR alpha-LBD, TR-FRET; for Emax: efficacy at max dose in relation to reference T0901317, LXR alpha-LBD, read-out: LXR alpha actiivty at max dose (%)
T2 construct: purchased Invitrogen pv4655
T2 sequence (Q13133 209-447 limits assumed): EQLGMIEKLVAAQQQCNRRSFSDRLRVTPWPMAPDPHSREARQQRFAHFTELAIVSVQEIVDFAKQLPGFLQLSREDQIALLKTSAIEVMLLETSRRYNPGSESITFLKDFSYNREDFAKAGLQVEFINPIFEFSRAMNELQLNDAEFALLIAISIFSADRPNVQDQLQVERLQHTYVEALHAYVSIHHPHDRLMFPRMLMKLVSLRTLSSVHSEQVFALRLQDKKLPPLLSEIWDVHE
Procedure, shortened: as §1

## COc1cccc([C@]2(C(=O)N(C)CCCC3CCN(c4ccc(C(=O)N(C)C)c(Cl)n4)CC3)CCCO2)c1 [Example 1-46, (S)-2-chloro-6-(4-(3-(2-(3-methoxyphenyl)-N-methyltetrahydrofuran-2-carboxamido)propyl)piperidin-1-yl)-N,N-dimethylnicotinamide]
[1]
  EC50: 0.412 µM
  Emax: 37%
[2]
  LXR alpha IP (nM): No IP
  Emax: 0%

## COc1cccc([C@@](O)(C(=O)NC[C@@H](C)CC2CCN(c3ccc(C(=O)N(C)C)c(Cl)n3)CC2)C(F)(F)F)c1 [Example 3-4, 2-chloro-N,N-dimethyl-6-(4-((S)-2-methyl-3-((R)-3,3,3-trifluoro-2-hydroxy-2-(3-methoxyphenyl)propanamido)propyl)piperidin 1-yl)nicotinamide]
[1]
  EC50: 0.134 µM
  Emax: 87%
[2]
  LXR alpha IP (nM): No IP
  Emax: 19%

## CNC(=O)c1ccc(N2CCC3(CC2)C[C@H]3CCN(C)C(=O)[C@](O)(c2cccc(OC)c2)C(F)(F)F)cc1Cl [Example 7-21, 2-chloro-N-methyl-4-((S)-1-(2-((R)-3,3,3-trifluoro-2-hydroxy-2-(3-methoxyphenyl)-N-methylpropanamido)ethyl)-6-azaspiro[2.5]octan-6-yl)benzamide]
[1]
  EC50: 1.55 µM
  Emax: 36%
[2]
  LXR alpha IP (nM): No IP
  Emax: 12%

## CN(C)C(=O)c1ccc(N2CCC(CCCN(C)C(=O)[C@@](O)(c3cccc(OC(F)F)c3)C(F)(F)F)CC2)nc1Cl [Example 1-50, (S)-2-chloro-6-(4-(3-(2-(3-(difluoromethoxy)phenyl)-3,3,3-trifluoro-2-hydroxy-N-methyl-propanamido)propyl)piperidin-1-yl)-N,N-dimethylnicotinamide]
[1]
  EC50: 0.062 µM
  Emax: 63%
[2]
  LXR alpha IP (nM): No IP
  Emax: 18%

## CN(C)C(=O)c1ccc(N2CCC(CCCN(C)C(=O)[C@](O)(c3cccc(O)c3)C(F)(F)F)CC2)nc1Cl [Example 1-58, (R)-2-chloro-N,N-dimethyl-6-(4-(3-(3,3,3-trifluoro-2-hdyroxy-2-(3-hydroxyphenyl)-N-methylpropanamido)propyl)piperidin-1-yl)nicotinamide]
[1]
  EC50: 0.037 µM
  Emax: 86%
[2]
  EC50: 2.77 µM
  Emax: 37%

## CN(C)C(=O)c1ccc(N2CCC(CCCN(C)C(=O)C(O)C(F)(F)F)CC2)nc1Cl (stereo not drawn) [Example 1-52, 2-chloro-N,N-dimethyl-6-(4-(3-(3,3,3-trifluoro-2-hydroxy-N-methylpropanamido)propyl)piperidin-1-yl)nicotinamide]
[1]
  EC50: 5.04 µM
  Emax: 46%
[2]
  LXR alpha IP (nM): No IP
  Emax: 11%

## CN(C)C(=O)c1ccc(N2CCC3(CC2)CC3CCN(C)C(=O)[C@](O)(c2cccc(OC(F)(F)F)c2)C(F)(F)F)cc1Cl (stereo in doubt) [Example 7-4, 2-chloro-N,N-dimethyl-4-((R)-1-(2-((R)-3,3,3-trifluoro-2-hydroxy-N-methyl-2-(3-(trifluoromethoxy)phenyl)propanamido)ethyl)-6-azaspiro[2.5]octan-6-yl) benzamide]
[1]
  EC50: 0.02 µM
  Emax: 64%
[2]
  EC50: 0.826 µM
  Emax: 26%

## COc1cccc([C@@](O)(C(=O)N[C@H](C)CCC2CCN(c3ccc(C(=O)N(C)C)c(Cl)n3)CC2)C(F)(F)F)c1 [Example 6-2, 2-chloro-N,N-dimethyl-6-(4-((R)-3-((R)-3,3,3-trifluoro-2-hydroxy-2-(3-methoxyphenyl)propanamido)butyl)piperidin-1-yl)nicotinamide]
[1]
  EC50: 0.098 µM
  Emax: 116%
[2]
  EC50: 2.44 µM
  Emax: 29%

## COc1cccc([C@@](O)(C(=O)NC2(CCC3CCN(c4ccc(C(=O)N(C)C)c(Cl)n4)CC3)CC2)C(F)(F)F)c1 [Example 8-1, (R)-2-chloro-N,N-dimethyl-6-(4-(2-(1-(3,3,3-trifluoro-2-hydroxy-2-(3-methoxyphenyl)propanamido)cyclopropyl)ethyl)piperidin-1-yl)nicotinamide]
[1]
  EC50: 0.201 µM
  Emax: 82%
[2]
  LXR alpha IP (nM): No IP
  Emax: 16%
